In patent publication US20260365670A1, “EGFR INHIBITORS AND USES THEREOF” (DIZAL (JIANGSU) PHARMACEUTICAL CO., LTD., priority 2022, published 2026):
Read-outs that look alike come from different tables or passages of the source.

Columns and labels:
EGFR Exon19Del = target: T1, EGFR Exon19Del (Homo sapiens, UniProt P00533, DEL746-750); assay: Inhibition of EGFR Exon19Del biochemical enzymatic activity (HTRF); conditions: EGFR Del19, 1 mM ATP, 1 h, room temperature, read-out: IC50 @Del19
T1 construct: purchased Carna Bio
T1 sequence (P00533 with tags, fused parts or gaps DEL746-750 limits assumed): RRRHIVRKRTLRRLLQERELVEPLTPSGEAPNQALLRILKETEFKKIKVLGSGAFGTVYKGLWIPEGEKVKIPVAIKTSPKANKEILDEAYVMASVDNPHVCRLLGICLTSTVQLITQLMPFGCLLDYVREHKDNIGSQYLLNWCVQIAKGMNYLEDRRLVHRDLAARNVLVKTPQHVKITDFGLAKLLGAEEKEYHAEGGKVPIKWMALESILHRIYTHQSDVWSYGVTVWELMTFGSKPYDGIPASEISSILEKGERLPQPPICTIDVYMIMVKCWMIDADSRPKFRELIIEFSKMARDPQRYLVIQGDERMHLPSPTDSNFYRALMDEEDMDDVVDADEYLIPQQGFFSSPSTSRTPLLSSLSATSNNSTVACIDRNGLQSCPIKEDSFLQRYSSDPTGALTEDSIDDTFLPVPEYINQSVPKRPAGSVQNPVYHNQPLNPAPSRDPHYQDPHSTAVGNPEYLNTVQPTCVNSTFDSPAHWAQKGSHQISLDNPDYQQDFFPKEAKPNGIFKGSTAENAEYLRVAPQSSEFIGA
Outline: (§1)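 1 mM ATP, 1 μM biotin-TK peptide, 5 mM MgCl2, 1 mM MnCl2, 0.01% CHAPS, 1 mM DTT, 0.5% DMSO; 1 h RT; EDTA stop; HTRF 665/615 nm; IC50 via 4PL.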

A-431 = assay: Cell proliferation GI50, A-431 cells (Table 6); format: cell-based
Method: [Worded in the source for another cell line; this cell line is reported under the same test.] Ba/F3 cells expressing EGFR mutations were seeded in 384-well plates at 5000 cells/well in RPMI1640 medium containing […]. PC-9 at 500 cells/well was seeded into 384-well plates in RPMI1640 medium with 10% FBS. After overnight incubation, the assay plates were dosed with compounds at a series of concentrations. Alongside dosing the assay plates, the day 0 plate was processed using CellTiter-Glo® Luminescent Cell Viability Assay (Promega) to measure the number of viable cells (G0). The assay plates were further incubated for 72 hours and the number of viable cells (G3) was measured. The percentage of proliferation was calculated as: […]=100×(G3 value of sample well−G0 value)/(G3 value of DMSO control−G0 value). The concentration of compound producing 50% proliferation inhibition (GI50) was further calculated in best-fit curves using XLFit software. N/A=not available.

EGFR L858R/T790M = target: T2, EGFR L858R/T790M (Homo sapiens, UniProt P00533, L858R/T790M); assay: Inhibition of EGFR L858R/T790M biochemical enzymatic activity (HTRF); conditions: EGFR L858R-T790M, 1 mM ATP, 1 h, room temperature, read-out: IC50 (nM) @L858R-T790M
T2 construct: purchased Carna Bio
Outline: as §1

EGFR (C797S L858R) = target: T3, EGFR (C797S L858R) (Homo sapiens, UniProt P00533, C797S/L858R); assay: Inhibition of EGFR (C797S L858R) biochemical enzymatic activity (HTRF); conditions: EGFR L858-C797S, 1 mM ATP, 1 h, room temperature, read-out: IC50 (nM) @L858-C797S
T3 construct: purchased signalchem
Outline: as §1

[1] = tested on: Ba/F3 cells expressing EGFR mutations; assay: Cell proliferation assay, Ba/F3 cells expressing EGFR mutations (CellTiter-Glo, 72 hours); format: cell-based; conditions: CellTiter-Glo
Outline: (§2)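 Seed Ba/F3 at 5000 cells/well and PC-9 at 500 cells/well (10% FBS RPMI1640); incubate overnight; add compound dilution series; read a G0 plate; incubate; read G3; GI50 from best-fit curve.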

EGFR[T790M/C797S/L858R] = target: T4, EGFR[T790M/C797S/L858R] (Homo sapiens, UniProt P00533, C797S/L858R/T790M); assay: Inhibition of EGFR[T790M/C797S/L858R] biochemical enzymatic activity (HTRF); conditions: EGFR T790M-C797S-L858R, 1 mM ATP, 1 h, room temperature, read-out: IC50 (nM) @T790M- C797S - L858R
T4 construct: purchased Carna Bio
T4 sequence (P00533 25-1210 T790M/C797S/L858R): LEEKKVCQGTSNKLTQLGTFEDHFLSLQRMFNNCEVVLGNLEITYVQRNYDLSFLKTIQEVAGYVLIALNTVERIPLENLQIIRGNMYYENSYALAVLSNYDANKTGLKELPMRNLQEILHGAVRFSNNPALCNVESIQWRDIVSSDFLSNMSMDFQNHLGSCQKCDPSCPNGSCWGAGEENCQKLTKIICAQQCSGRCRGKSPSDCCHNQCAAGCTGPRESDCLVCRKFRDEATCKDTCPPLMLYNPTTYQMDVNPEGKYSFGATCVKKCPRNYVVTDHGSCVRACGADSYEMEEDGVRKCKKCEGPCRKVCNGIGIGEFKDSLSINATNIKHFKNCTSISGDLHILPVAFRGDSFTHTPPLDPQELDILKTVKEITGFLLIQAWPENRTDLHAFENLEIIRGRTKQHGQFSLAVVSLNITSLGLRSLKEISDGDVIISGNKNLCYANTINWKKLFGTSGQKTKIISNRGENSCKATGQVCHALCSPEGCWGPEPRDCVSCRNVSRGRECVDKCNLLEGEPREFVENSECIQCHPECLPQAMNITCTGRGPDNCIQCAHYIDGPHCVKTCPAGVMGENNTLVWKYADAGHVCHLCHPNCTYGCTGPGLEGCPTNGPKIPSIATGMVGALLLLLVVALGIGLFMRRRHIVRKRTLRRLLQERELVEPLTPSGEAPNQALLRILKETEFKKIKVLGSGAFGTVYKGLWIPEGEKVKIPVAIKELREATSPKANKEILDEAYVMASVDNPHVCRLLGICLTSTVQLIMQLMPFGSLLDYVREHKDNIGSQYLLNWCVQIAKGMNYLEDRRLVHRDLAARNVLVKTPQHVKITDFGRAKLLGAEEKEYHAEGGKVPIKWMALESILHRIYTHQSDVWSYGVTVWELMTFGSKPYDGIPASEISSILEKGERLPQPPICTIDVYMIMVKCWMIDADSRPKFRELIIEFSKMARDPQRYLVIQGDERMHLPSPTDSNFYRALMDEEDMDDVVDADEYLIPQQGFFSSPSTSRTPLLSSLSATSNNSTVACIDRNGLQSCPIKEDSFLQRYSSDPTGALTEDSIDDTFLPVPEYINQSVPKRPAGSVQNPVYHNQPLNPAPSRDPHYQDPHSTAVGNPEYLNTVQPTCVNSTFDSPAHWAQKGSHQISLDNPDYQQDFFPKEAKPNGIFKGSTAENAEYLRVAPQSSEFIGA
Outline: as §1

EGFR Exon19Del/T790M = target: T5, EGFR Exon19Del/T790M (Homo sapiens, UniProt P00533, DEL746-750/T790M); assay: Inhibition of EGFR Exon19Del/T790M biochemical enzymatic activity (HTRF); conditions: EGFR Del19-T790M, 1 mM ATP, 1 h, room temperature, read-out: IC50 (nM) @Del19-T790M
T5 construct: purchased Carna Bio
T5 sequence (P00533 with tags, fused parts or gaps DEL746-750/T790M limits assumed): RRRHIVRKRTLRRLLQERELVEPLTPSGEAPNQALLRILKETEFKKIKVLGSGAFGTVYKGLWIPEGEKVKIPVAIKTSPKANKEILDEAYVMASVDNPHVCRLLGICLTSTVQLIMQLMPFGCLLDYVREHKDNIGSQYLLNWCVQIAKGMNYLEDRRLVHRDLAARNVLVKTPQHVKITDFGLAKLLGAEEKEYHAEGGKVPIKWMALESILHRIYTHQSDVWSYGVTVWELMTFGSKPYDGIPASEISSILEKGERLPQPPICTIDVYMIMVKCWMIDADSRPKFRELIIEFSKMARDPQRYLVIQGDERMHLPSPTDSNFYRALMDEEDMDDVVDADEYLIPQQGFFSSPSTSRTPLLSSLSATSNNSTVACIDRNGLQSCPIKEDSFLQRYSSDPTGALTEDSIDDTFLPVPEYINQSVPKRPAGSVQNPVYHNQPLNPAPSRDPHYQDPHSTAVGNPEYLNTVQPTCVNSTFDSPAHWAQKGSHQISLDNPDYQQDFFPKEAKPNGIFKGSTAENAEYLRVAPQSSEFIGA
Outline: as §1

EGFR L858R = target: T6, EGFR L858R (Homo sapiens, UniProt P00533, L858R); assay: Inhibition of EGFR L858R biochemical enzymatic activity (HTRF); conditions: 1 mM ATP, 1 h, room temperature, read-out: IC50 (nM) @L858R
T6 construct: purchased Carna Bio
T6 sequence (P00533 25-1210 L858R): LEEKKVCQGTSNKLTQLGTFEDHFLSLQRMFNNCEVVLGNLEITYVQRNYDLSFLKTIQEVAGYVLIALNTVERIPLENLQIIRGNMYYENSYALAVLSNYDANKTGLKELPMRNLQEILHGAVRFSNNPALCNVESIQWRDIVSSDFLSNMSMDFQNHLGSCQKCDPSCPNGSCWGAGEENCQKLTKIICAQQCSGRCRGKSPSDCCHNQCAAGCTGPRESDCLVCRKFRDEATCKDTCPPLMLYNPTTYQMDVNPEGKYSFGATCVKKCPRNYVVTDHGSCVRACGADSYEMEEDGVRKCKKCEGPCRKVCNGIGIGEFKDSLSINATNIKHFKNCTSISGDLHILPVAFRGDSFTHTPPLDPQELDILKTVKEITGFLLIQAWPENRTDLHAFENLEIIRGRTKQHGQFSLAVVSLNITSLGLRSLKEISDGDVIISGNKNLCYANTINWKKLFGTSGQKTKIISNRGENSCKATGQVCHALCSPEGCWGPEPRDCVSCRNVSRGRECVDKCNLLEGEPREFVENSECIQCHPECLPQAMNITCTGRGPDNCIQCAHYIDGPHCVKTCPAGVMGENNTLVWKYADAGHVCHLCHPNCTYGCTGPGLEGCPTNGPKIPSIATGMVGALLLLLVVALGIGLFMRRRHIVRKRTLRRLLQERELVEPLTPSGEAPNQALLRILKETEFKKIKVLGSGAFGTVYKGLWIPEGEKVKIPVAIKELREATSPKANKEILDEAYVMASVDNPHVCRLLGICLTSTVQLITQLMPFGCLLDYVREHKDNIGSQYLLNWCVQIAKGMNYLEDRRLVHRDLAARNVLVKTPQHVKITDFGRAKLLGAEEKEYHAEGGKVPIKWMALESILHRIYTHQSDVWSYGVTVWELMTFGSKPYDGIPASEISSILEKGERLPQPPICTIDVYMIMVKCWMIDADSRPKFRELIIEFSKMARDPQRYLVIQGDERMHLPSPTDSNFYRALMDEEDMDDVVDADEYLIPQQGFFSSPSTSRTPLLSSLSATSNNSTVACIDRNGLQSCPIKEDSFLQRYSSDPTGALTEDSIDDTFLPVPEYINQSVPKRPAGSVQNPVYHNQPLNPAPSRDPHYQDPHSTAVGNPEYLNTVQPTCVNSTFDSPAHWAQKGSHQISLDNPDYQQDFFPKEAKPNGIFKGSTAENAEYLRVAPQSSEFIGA
Outline: as §1

[2] = target: T7, EGFR[T790M/C797S/d746-750] (Homo sapiens, UniProt P00533, C797S/DEL746-750/T790M); assay: Inhibition of EGFR[T790M/C797S/d746-750] biochemical enzymatic activity (HTRF); conditions: EGFR T790M-C797S-Del19, 1 mM ATP, 1 h, room temperature, read-out: IC50 (nM) @T790M - C797S - Del19
T7 construct: purchased Carna Bio
T7 sequence (P00533 with tags, fused parts or gaps DEL746-750/T790M/C797S limits assumed): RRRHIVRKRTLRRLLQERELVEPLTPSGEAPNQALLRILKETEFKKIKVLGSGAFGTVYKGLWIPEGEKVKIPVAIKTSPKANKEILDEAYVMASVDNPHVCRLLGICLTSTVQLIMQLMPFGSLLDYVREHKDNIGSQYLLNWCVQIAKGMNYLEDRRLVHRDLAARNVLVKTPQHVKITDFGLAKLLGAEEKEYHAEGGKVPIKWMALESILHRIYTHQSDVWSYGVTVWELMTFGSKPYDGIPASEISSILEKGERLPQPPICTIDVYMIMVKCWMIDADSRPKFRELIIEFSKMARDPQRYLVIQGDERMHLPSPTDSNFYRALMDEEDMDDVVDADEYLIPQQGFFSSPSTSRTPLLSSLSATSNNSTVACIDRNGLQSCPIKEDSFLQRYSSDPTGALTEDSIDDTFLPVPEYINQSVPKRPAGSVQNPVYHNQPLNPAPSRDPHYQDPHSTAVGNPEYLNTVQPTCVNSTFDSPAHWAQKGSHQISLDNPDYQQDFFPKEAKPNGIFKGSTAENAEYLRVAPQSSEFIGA
Outline: as §1

EGFR (d746-750 C797S) = target: T8, EGFR (d746-750 C797S) (Homo sapiens, UniProt P00533, C797S/DEL746-750); assay: Inhibition of EGFR (d746-750 C797S) biochemical enzymatic activity (HTRF); conditions: EGFR Del19-C797S, 1 mM ATP, 1 h, room temperature, read-out: IC50 (nM) @Del19-C797S
T8 construct: purchased signalchem
T8 sequence (P00533 with tags, fused parts or gaps DEL746-750/C797S limits assumed): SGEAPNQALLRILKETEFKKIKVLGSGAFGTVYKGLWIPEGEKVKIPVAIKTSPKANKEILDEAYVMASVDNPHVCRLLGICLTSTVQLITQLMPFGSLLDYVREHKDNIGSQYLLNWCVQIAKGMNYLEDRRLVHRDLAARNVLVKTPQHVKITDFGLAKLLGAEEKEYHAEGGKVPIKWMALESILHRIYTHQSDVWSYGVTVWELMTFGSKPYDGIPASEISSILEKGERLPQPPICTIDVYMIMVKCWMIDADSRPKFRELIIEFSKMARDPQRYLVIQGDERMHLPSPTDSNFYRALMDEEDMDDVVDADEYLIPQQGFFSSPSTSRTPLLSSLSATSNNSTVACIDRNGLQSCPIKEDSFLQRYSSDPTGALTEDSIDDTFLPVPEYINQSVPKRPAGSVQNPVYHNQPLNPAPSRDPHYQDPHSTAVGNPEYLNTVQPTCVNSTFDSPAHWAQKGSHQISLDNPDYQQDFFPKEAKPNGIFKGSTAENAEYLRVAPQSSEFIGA
Outline: as §1

EGFR wild type = target: T9, EGFR wild type (Homo sapiens, UniProt P00533); assay: Inhibition of EGFR wild type biochemical enzymatic activity (HTRF); conditions: EGFR WT, 1 mM ATP, 1 h, room temperature, read-out: IC50 (nM) @WT
T9 construct: purchased Carna Bio
Outline: as §1

PC-9 = assay: Cell proliferation assay, PC-9 cells (CellTiter-Glo, 72 hours); format: cell-based; conditions: PC9 cells, CellTiter-Glo, read-out: PC9 GI50
Outline: as §2

[3] = Homo sapiens, A-431, A-431 cells
[4] = Mus musculus, BaF3, 72 h, BaF3 cells, EGFR DEL19-C797S, read-out: DEL19-C797S/BaF3 GI50
[5] = Mus musculus, BaF3, 72 h, BaF3 cells, EGFR DEL19-T790-C797S, read-out: DEL19-T790-C797S/BaF3 GI50
[6] = Mus musculus, BaF3, 72 h, BaF3 cells, EGFR L858R, read-out: L858R/BaF3 GI50
[7] = Mus musculus, BaF3, 72 h, BaF3 cells, EGFR L858R-C797S, read-out: L858R-C797S/BaF3 GI50
[8] = Mus musculus, BaF3, 72 h, BaF3 cells, EGFR L858R-T790-C797S, read-out: L858R-T790-C797S/BaF3 GI50
[9] = Mus musculus, BaF3, 72 h, BaF3 cells, EGFR L858R-T790M, read-out: L858R-T790M/BaF3 GI50
[10] = Mus musculus, BaF3, 72 h, EGFR DEL19-T790M, read-out: DEL19-T790M GI50
[11] = BaF3 cells, EGFR DEL19-C797S, read-out: DEL19-C797S/BaF3 GI50
[12] = BaF3 cells, EGFR DEL19-T790-C797S, read-out: DEL19-T790-C797S/BaF3 GI50
[13] = BaF3 cells, EGFR L858R, read-out: L858R/BaF3 GI50
[14] = BaF3 cells, EGFR L858R-C797S, read-out: L858R-C797S/BaF3 GI50
[15] = BaF3 cells, EGFR L858R-T790-C797S, read-out: L858R-T790-C797S/BaF3 GI50
[16] = BaF3 cells, EGFR L858R-T790M, read-out: L858R-T790M/BaF3 GI50
[17] = EGFR DEL19-T790M, read-out: DEL19-T790M GI50

Row | SMILES | IC50 (EGFR Exon19Del) [nM] | GI50 (A-431; [3]) [nM] | IC50 (EGFR L858R/T790M) [nM] | IC50 (EGFR (C797S L858R)) [nM] | GI50 [1, 4] [nM] | GI50 [1, 5] [nM] | IC50 (EGFR[T790M/C797S/L858R]) [nM] | IC50 (EGFR Exon19Del/T790M) [nM] | IC50 (EGFR L858R) [nM] | IC50 [2] [nM] | IC50 (EGFR (d746-750 C797S)) [nM] | IC50 (EGFR wild type) [nM] | GI50 [1, 11] [nM] | GI50 [1, 12] [nM] | GI50 [1, 13] [nM] | GI50 [1, 14] [nM] | GI50 [1, 15] [nM] | GI50 [1, 16] [nM] | GI50 [1, 17] [nM] | GI50 (PC-9) [nM] | also measured
1 | CN1CCN(c2ccc3c(c2)nc2n3C34CCC(CN(CCOc5c(cnn5C)-c5cc(cn(C)c5=O)C(=O)N2)C3)C4)CC1 (stereo not drawn) [Example A60A, 15,21-dimethyl-6-(4-methylpiperazin-1-yl)-23-oxa-2,9,11,15,20,21,26-heptaazaheptacyclo[24.4.1.1^{1,28}.1^{13,17}.0^{2,10}.0^{3,8}.0^{18,22}]tritriaconta-3,5,7,9,13,17(33),18(22),19-octaene-12,16-dione] | 276 |  | > 5000 | > 5000 |  |  | > 5000 | 141 | > 5000 | 117 | 196 | > 5000 | 96 | 166 | 315 | 519 | 403 | 1400 | 285 | 633 | GI50 (A-431; A-431 cells): 6550 nM
2 | Cn1ncc2c1OCCN1CC3CCC(C3)(C1)n1c(nc3ccc(N4CCC(N5CC(F)C5)CC4)cc31)NC(=O)c1cc-2c(=O)n(C)c1 (single isomer, unassigned) [Example A87B] | 2.8 |  | 8.8 | 8.9 |  |  | 8.7 | 9.5 | 9.3 | 8.6 | 4.1 | 36 | 0.7 | 4 | 4.6 | 7.9 | 7.7 | 13 | 3.4 | 25 | GI50 (A-431; A-431 cells): 5970 nM
3 | CN(C)[C@H]1CCN(c2ccc3nc4n(c3c2)C23CCC(CN(CCOc5c(cnn5C)-c5cc(cn(C)c5=O)C(=O)N4)C2)C3)C1 (single isomer, unassigned) [Example A66B] | 1.9 | 815 | 2.6 | 8.1 |  |  | 3.2 | 2.8 | 7.9 | 2.9 | 1.7 | 62 | 0.67 | 2.1 | 2.4 | 3.6 | 2.2 | 11 | 1.9 | 6.1 | 
4 | CN1CCC2(CN(c3ccc4nc5n(c4c3)C34CCC(CN(CCOc6c(cnn6C)-c6cc(cn(C)c6=O)C(=O)N5)C3)C4)C2)C(F)(F)C1 (single isomer, unassigned) [Example A91B] | 4 |  | 12 | 8 |  |  | 6.1 | 9.7 | 11 | 6.7 | 2.9 | 110 | 0.75 | 2.2 | 2.6 | 3.9 | 4.6 | 11 | 3.1 | 25 | GI50 (A-431; A-431 cells): 1690 nM

Continued, in another order:

Row | IC50 (EGFR Exon19Del) [nM] | GI50 (A-431; [3]) [nM] | IC50 (EGFR L858R/T790M) [nM] | IC50 (EGFR (C797S L858R)) [nM] | GI50 [1, 4] [nM] | GI50 [1, 5] [nM] | IC50 (EGFR[T790M/C797S/L858R]) [nM] | IC50 (EGFR Exon19Del/T790M) [nM] | IC50 (EGFR L858R) [nM] | IC50 [2] [nM] | IC50 (EGFR (d746-750 C797S)) [nM] | IC50 (EGFR wild type) [nM] | GI50 [1, 11] [nM] | GI50 [1, 12] [nM] | GI50 [1, 13] [nM] | GI50 [1, 14] [nM] | GI50 [1, 15] [nM] | GI50 [1, 16] [nM] | GI50 [1, 17] [nM] | GI50 (PC-9) [nM] | SMILES | also measured
5 | 3.5 | 1410 | 7.4 | 47 | 8.1 | 58 | 3.2 | 2.3 | 212 | 1.8 | 2.3 | > 5000 |  |  |  |  |  |  |  |  | C[C@@H]1CCCOc2c(cnn2C)-c2cc(cn(C)c2=O)C(=O)Nc2nc3ccc(N4CCN(C)CC4)c(Cl)c3n2C1 [Example A101, (11R)-15-Chloro-5,11,26-trimethyl-16-(4-methylpiperazin-1-yl)-7-oxa-4,5,13,20,22,26-hexaazapentacyclo[22.3.1.0^{2,6}.0^{13,21}.0^{14,19}]octacosa-1(28),2(6),3,14,16,18,20,24-octaene-23,27-dione] | GI50 [1, 6]: 68 nM; GI50 [1, 7]: 31 nM; GI50 [1, 8]: 57 nM; GI50 [1, 9]: 260 nM; GI50 [1, 10]: 92 nM; GI50 (PC-9; Homo sapiens, PC-9, 72 h): 128 nM
6 | 15 | 639 | 70 | 135 | 7.4 | 27 | 21 | 12 | 462 | 13 | 7.2 | > 5000 |  |  |  |  |  |  |  |  | C[C@@H]1CCCOc2c(cnn2C)-c2cc(cn(C)c2=O)C(=O)Nc2nc3ccc(N4CCN(CC(F)(F)F)CC4)cc3n2C1 [Example A53] | GI50 [1, 6]: 28 nM; GI50 [1, 7]: 34 nM; GI50 [1, 8]: 35 nM; GI50 [1, 9]: 51 nM; GI50 [1, 10]: 49 nM; GI50 (PC-9; Homo sapiens, PC-9, 72 h): 51 nM
7 | 4.7 | 2820 | 12 | 61 | 4 | 11 | 2.7 | 3 | 207 | 2.7 | 3 | > 5000 |  |  |  |  |  |  |  |  | C[C@@H]1CCCOc2c(cnn2C)-c2cc(cn(C)c2=O)C(=O)Nc2nc3ccc(N4CCNCC4)c(Cl)c3n2C1 [Example A23, (11R)-15-chloro-5,11,26-trimethyl-16-(piperazin-1-yl)-7-oxa-4,5,13,20,22,26-hexaazapentacyclo[22.3.1.0^{2,6}.0^{13,21}.0^{14,19}]octacosa-1(28),2(6),3,14,16,18,20,24-octaene-23,27-dione] | GI50 [1, 6]: 104 nM; GI50 [1, 7]: 32 nM; GI50 [1, 8]: 12 nM; GI50 [1, 9]: 151 nM; GI50 [1, 10]: 10 nM; GI50 (PC-9; Homo sapiens, PC-9, 72 h): 208 nM
